From PMC7517944, “Design and Synthesis of Novel Nordihydroguaiaretic Acid (NDGA) Analogues as Potential FGFR1 Kinase Inhibitors With Anti-Gastric Activity and Chemosensitizing Effect” (Frontiers in Pharmacology, 2020) come the findings set out here.

Experiment [1] has as its target T1, FGFR1 kinase (Homo sapiens, UniProt P11362). Briefly: cell-free Caliper mobility shift kinase assay, inhibition at […]. It counts as biochemical.
Experiment [2] deals with T1, FGFR1 kinase. Briefly: cell-free Caliper mobility shift kinase assay, […] inhibition at […]; also lowers p-FGFR1 in cells. It counts as biochemical.

T1 sequence (P11362 22-822): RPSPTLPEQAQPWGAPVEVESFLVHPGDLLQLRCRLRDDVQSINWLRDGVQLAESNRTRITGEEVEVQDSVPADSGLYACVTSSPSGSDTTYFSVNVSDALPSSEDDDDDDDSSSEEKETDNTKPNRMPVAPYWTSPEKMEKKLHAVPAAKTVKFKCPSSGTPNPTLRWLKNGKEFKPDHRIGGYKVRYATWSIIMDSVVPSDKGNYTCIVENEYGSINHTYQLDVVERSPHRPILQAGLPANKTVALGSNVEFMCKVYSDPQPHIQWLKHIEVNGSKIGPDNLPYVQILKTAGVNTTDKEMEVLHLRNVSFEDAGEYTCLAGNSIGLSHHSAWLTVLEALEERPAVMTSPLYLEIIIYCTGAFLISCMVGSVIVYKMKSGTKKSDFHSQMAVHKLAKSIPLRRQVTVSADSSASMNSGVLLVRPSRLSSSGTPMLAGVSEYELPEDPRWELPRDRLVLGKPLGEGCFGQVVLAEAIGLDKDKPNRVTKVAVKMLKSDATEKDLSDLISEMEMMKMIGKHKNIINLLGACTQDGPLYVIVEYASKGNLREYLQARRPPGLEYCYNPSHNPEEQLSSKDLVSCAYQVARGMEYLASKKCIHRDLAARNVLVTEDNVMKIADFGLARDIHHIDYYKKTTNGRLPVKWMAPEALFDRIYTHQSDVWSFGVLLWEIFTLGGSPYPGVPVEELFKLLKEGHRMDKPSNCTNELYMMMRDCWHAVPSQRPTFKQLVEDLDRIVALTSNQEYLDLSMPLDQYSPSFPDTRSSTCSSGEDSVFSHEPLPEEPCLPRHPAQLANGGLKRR

Turning to `O=C1/C(=C/c2ccc(O)c(O)c2)COC/C1=C\c1ccc(O)c(O)c1` [Af23], the inhibition (in general, the percentage by which the read-out fell short of the control) at 20 µM at FGFR1 kinase [1] was determined as 92.8%. Still for that read-out and setting: with `COc1cc(/C=C2\COC/C(=C\c3ccc(O)c(O)c3)C2=O)ccc1O` [Y2, (3E,5E)-3-(3,4-dihydroxybenzylidene)-5-(4-hydroxy-3-methoxybenzylidene)dihydro-2H-pyran-4(3H)-one] the figure was 55.7%; with `O=C1/C(=C/c2ccc(O)cc2)COC/C1=C\c1ccc(O)c(O)c1` [Y5, (3E,5E)-3-(3,4-dihydroxybenzylidene)-5-(4-hydroxybenzylidene)dihydro-2H-pyran-4(3H)-one], 78.5%; with `O=C1/C(=C/c2cccc(O)c2)COC/C1=C\c1ccc(O)c(O)c1` [Y7, (3E,5E)-3-(3,4-dihydroxybenzylidene)-5-(3-hydroxybenzylidene)dihydro-2H-pyran-4(3H)-one], 73.7%. As for `COc1ccc(/C=C2\COC/C(=C\c3ccc(O)c(O)c3)C2=O)cc1O` [Y9, (3E,5E)-3-(3,4-dihydroxybenzylidene)-5-(3-hydroxy-4-methoxybenzylidene)dihydro-2H-pyran-4(3H)-one], the inhibition at 20 µM on FGFR1 kinase [1] is 53.5%. With `COc1ccccc1/C=C1\COC/C(=C\c2ccc(O)c(O)c2)C1=O` [Y11, (3E,5E)-3-(3,4-dihydroxybenzylidene)-5-(2-methoxybenzylidene)dihydro-2H-pyran-4(3H)-one], the inhibition at 20 µM at FGFR1 kinase [1] turned out to be 54.2%. On the same count and under the same terms, with `O=C1/C(=C/c2ccc(N3CCOCC3)cc2)COC/C1=C\c1ccc(O)c(O)c1` [Y13, (3E,5E)-3-(3,4-dihydroxybenzylidene)-5-(4-morpholinobenzylidene)dihydro-2H-pyran-4(3H)-one] the figure was 71.4%.

In the case of `COc1cccc(/C=C2\COC/C(=C\c3ccc(O)c(O)c3)C2=O)c1OC` [Y14, (3E,5E)-3-(3,4-dihydroxybenzylidene)-5-(2,3-dimethoxybenzylidene)dihydro-2H-pyran-4(3H)-one], at FGFR1 kinase [2], the inhibition at 20 µM stood at 92%. As for `COc1ccc(OC)c(/C=C2\COC/C(=C\c3ccc(O)c(O)c3)C2=O)c1` [Y15, (3E,5E)-3-(3,4-dihydroxybenzylidene)-5-(2,5-dimethoxybenzylidene)dihydro-2H-pyran-4(3H)-one], on FGFR1 kinase [1], the inhibition at 20 µM amounted to 67.6%.
